The subject of this assay is CEM cells HIV-1 protection, formazan growth assay. The experiment in a line: NCI AIDS Antiviral Assay. The note with it: for IC50: measured here: growth of uninfected CEM cells. The method in brief: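 CEM (human) cells, HIV-1 infected vs uninfected, 5-point dosing, formazan growth read-out. Retest threshold 50% protection.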

Molecules are shown by their SMILES. Calls of active or inactive are those of the source.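 How the source made its calls: active means compounds giving half or more protection of infected cells from virus-caused growth loss, again on retest; inactive means the rest.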 Where only a bound is given, the exact number is not on record here.

With `C[N+](C)(CCNc1ccc(NCC[N+](C)(C)Cc2ccc([N+](=O)[O-])cc2)c2c1C(=O)c1ccccc1C2=O)Cc1ccc([N+](=O)[O-])cc1`, the EC50 (usually the concentration at which the effect is half-maximal) was over 151 µM and the IC50 (usually the midpoint of a concentration-inhibition curve) was over 151 µM.
Turning to `N#CC1(OC2CCCCO2)Cc2ccccc2C1` (centres undefined), the EC50 is over 200 µM and the IC50 was over 200 µM.
Take `NNC(=S)N/N=C(\c1nc2ccc(Cl)cc2[nH]c1=O)C(O)c1ccc(Cl)cc1Cl` (centres undefined): the EC50 was over 525 µM and the IC50 turned out to be 97.7 µM.
On to `O=C1Nc2cnc(Cl)nc2Nc2cc(Cl)ccc21`, for which the EC50 was over 200 µM and the IC50 is over 200 µM.
As for `CN(C)CCC[N+]1=Nc2cccc3cccc(c23)N1`, the outcome was inactive.
With `C1CCC(OCC2(COC3CCCCO3)CCCCO2)OC1` (centres undefined), the EC50 is over 200 µM and the IC50 is over 200 µM.
With `CN(C)C(=S)N/N=C(\C(=N/NC(=S)N(C)C)c1ccccn1)c1ccccn1`, the EC50 is over 20 µM and the IC50 came to 1.1 µM.
`Nc1nn2cc3c(nc2c1N=Nc1ccc(Cl)cc1)-c1ccccc1CC3`: the EC50 was over 100 µM and the IC50 was over 100 µM.
`COC(=O)c1cc(C(c2cc(C(=O)OC)c(O)cc2C)C(Cl)(Cl)Cl)c(C)cc1O`: the EC50 is over 200 µM and the IC50 is 5.75 µM.
The corresponding values for `C=C1CN(S(=O)(=O)c2ccc(C)cc2)CCCCN(Cc2ccccc2)CCCN(S(=O)(=O)c2ccc(C)cc2)C1` are over 200 µM and 6.92 µM.
The corresponding values for `O=C(NCCCN1CCN(CCCNC(=O)c2cnc3ccccc3n2)CC1)c1cnc2ccccc2n1` are over 10 µM and over 10 µM.
The corresponding values for `c1ccc2c(c1)Sc1ccccc1C2=C1c2ccccc2Sc2ccccc21` are over 200 µM and 10.7 µM.
For `COc1cc(Nc2nc3cc(C)ccc3nc2-c2ccccc2)cc(OC)c1OC`, the EC50 was over 200 µM and the IC50 is 34.7 µM.
As to `CCOC(=O)NC(=O)c1cn(CCSCCOC(=O)NCCCCCCNC(=O)OCCSCCn2cc(C(=O)NC(=O)OCC)c(=O)[nH]c2=O)c(=O)[nH]c1=O`, the outcome was inactive.
As to `CC12CN3CC(C)(C1=O)C(=O)C(C)(C3)C2=O`, the EC50 was over 117 µM and the IC50 is over 117 µM.
For the compound `CC1=NN(c2ccccc2)C(=O)C1N=Nc1ccc(S(=O)(=O)Nc2occ(C)c2C)cc1` (centres undefined), the result was inactive.
Turning to `N/C(=N/N=C/c1ccc(Cl)c([N+](=O)[O-])c1)NO`, the result was inactive.
On to `COc1ccc(-c2csc3c2[N+]2(C)C=CC=C2C3N2CCCC2)cc1` (centres undefined), for which the EC50 was over 200 µM and the IC50 was found to be 8.51 µM.
The corresponding values for `COc1cccc(C=O)c1[O-].[O]=[U](=[O])([OH2+])[OH2+]` are over 79.4 µM and 39.8 µM.
In the case of `COC[C@H]1OC(=O)c2coc3c2[C@@]1(C)C1=C(C3=O)[C@@H]2CCC(=O)[C@@]2(C)C[C@H]1OC(C)=O`, the result was inactive.
In the case of `FC(F)(F)c1nc(-c2ccccc2)oc1Sc1nnc(Sc2oc(-c3ccccc3)nc2C(F)(F)F)s1`, the outcome was inactive.
Same read-out and setting: in the case of `CC(=O)Oc1c(C(C)C)cc2c(c1OC(C)=O)C[C@@]1(C)OC(=O)CC(C)(C)C1(OC(C)=O)C=C2` (some centres undefined) it was “inactive”.
As to `CC1=CC(C)C(=O)N(CCN2CCOCC2)C(C)=C1` (centres undefined), the EC50 is over 955 µM and the IC50 is over 955 µM.
For the compound `O=c1[nH]c(=O)n(C2OC(CO)C(O)C2O)c(NNc2ccccc2)c1NNc1ccccc1` (centres undefined), the EC50 was 145 µM and the IC50 was over 200 µM.
For `COc1cc(C2c3cc4c(cc3C(NCC(O)CO)C3COC(=O)[C@H]23)OCO4)cc(OC)c1OC` (some centres undefined), the result was inactive.
`CCOC(=O)C(C)(C)Oc1ccc2c(-c3ccc(Cl)cc3)c(-c3ccc(Cl)cc3)c(=O)oc2c1`: the EC50 is over 7.59 µM and the IC50 was over 7.59 µM.
`COC(=O)CCC(=O)N1CC1C` (centres undefined): the outcome was inactive.
`Nc1ccc(/C=C/c2ccnc3ccccc23)cc1`: the EC50 is 19.5 µM and the IC50 was over 200 µM.
On the same counts, the results for `Cc1cc2c(nn1)-c1ccccc1C2=O` are over 200 µM and 105 µM.
The corresponding values for `[N-]=[N+]=NC1CC(n2cc(CO)c(=O)[nH]c2=O)OC1CO` (centres undefined) are over 437 µM and 240 µM.
As to `CC(C)[Si](Oc1cc2c3c(ccc2c(O)c1[C@@H](C)CO[Si](C)(C)C(C)(C)C)C(C)(C)CCC3)(C(C)C)C(C)C`, the EC50 was over 200 µM and the IC50 was 40.7 µM.
For `CS(=O)(=O)Nc1ccc2ccccc2c1`, the EC50 was over 200 µM and the IC50 was 158 µM.
Take `O=C1NC(O)c2c(F)cccc2O1` (centres undefined): the EC50 was over 200 µM and the IC50 came out at 132 µM.
As to `O=c1[nH]c(Nc2nc3ccccc3[nH]2)nc(O)c1-c1ccccc1`, the EC50 was 162 µM and the IC50 was over 200 µM.
For the compound `CCc1cccc(CC)c1NC(=S)NC(=O)c1ccc(Br)cc1`, the EC50 is over 18.2 µM and the IC50 was over 18.2 µM.
With `C[N+](C)(C)CCCC#CC[N+]1(C)CCc2ccccc2C1` (centres undefined), the result was inactive.
Regarding `O=P1(N2CCOCC2)OCCO1`, the EC50 is over 200 µM and the IC50 is over 200 µM.
As for `O=C(/C=C/c1ccc(/C=C/C(=O)c2ccc(O)cc2)cc1)c1ccc(O)cc1`, the EC50 is over 200 µM and the concentration for half-maximal inhibition (IC50) was 26.9 µM.
With `Nc1ccccc1Sc1ccccc1`, the EC50 is over 372 µM and the IC50 came out at 77.6 µM.
`CN(C)CCCNC(=O)c1cc(NC(=O)c2cc(NC(=O)c3cc(N4C(=O)c5ccccc5C4=O)cn3C)cn2C)cn1C`: the EC50 is over 81.3 µM and the concentration for half-maximal inhibition (IC50) turned out to be 57.5 µM.
As for `O=S1(=O)C2CCCC1C(Cl)CC2` (centres undefined), the EC50 was over 47.9 µM and the IC50 was over 47.9 µM.
Regarding `COC(=O)C1CC2c3c(c4ccccc4n3C)CC(C1=O)N2C` (centres undefined), the outcome was inactive.
Regarding `CCc1cccc(C(C)CC)c1NC(=O)CC1C(=O)Nc2ccccc2S1=O` (centres undefined), the EC50 was over 46.8 µM and the IC50 is over 46.8 µM.
Take `Cc1c(O)c(OC2OC(CO)C(O)C(O)C2O)cc2c1C=C[C@@H]1[C@@]2(C)C(=O)C[C@]2(C)[C@@H]([C@@](C)(O)C(=O)CCC(C)(C)O)[C@H](O)C[C@@]12C` (some centres undefined): the EC50 is over 200 µM and the IC50 stood at 93.3 µM.
On to `COc1cccc(NC(=O)CC(=O)N2N=C(C)C(N=Nc3ccc(S(=O)(=O)CCOS(=O)(=O)O)cc3)C2=O)c1` (centres undefined), for which the EC50 was over 200 µM and the IC50 was found to be 3.02 µM.
Turning to `Cn1c(=O)c2c(no[n+]2[O-])c2ccccc21`, the outcome was inactive.
On to `O=Cn1c2ccccc2c2ccccc21`, for which the EC50 was over 200 µM and the IC50 was 170 µM.
The corresponding values for `CC1(C)COC(c2ccc(CC(O)c3ccccc3)cc2)=N1` (centres undefined) are over 200 µM and 41.7 µM.
Regarding `CNC(=S)N/N=C(\C(=N/NC(=S)NC)c1ccccn1)c1ccccn1`, the EC50 was over 0.2 µM and the IC50 is 0.0513 µM.
On the same counts, the results for `O=C(O)Cc1cccc2c(=O)c3cccc([N+](=O)[O-])c3oc12` are over 200 µM and over 200 µM.
In the case of `Cn1c(=O)n2n(c1=O)C1C(=CC2)C2C=CC1n1c(=O)n(C)c(=O)n12` (centres undefined), the EC50 is over 200 µM and the IC50 was over 200 µM.
Regarding `COC(=O)c1cc2c(s1)C(=O)c1ccccc1-2`, the EC50 was over 2.24 µM and the IC50 is over 2.24 µM.
For `c1cc(-c2cn3c(n2)SCC3)ccn1`, the EC50 was over 437 µM and the half-inhibitory concentration (IC50) was 182 µM.
For `COc1cc2ccc(C(=O)NCCCNC(=O)c3ccc4cc(OC)c(OC)cc4c3)cc2cc1OC`, the EC50 is 126 µM and the IC50 was over 200 µM.
As to `Cc1ccc(NC(=O)SCCC(=O)O)cc1`, the result was inactive.
For `C/C(O)=C(\N=O)C(=O)NCc1ccccc1`, the EC50 was over 1120 µM and the IC50 is over 1120 µM.
On to `CC(C)(C)OC(=O)CN1CCN(CC(=O)N2CCN(C(=O)OCc3ccccc3)CC2)CCN(CC(=O)OC(C)(C)C)CCN(CC(=O)N2CCN(C(=O)OCc3ccccc3)CC2)CC1`, for which the EC50 was over 100 µM and the IC50 came out at 1.29 µM.
Consider `O=C(O)c1cc2ccccc2c(I)c1O`, for which the EC50 is over 200 µM and the IC50 worked out at 105 µM.
The corresponding values for `COC(=O)C1C2COc3ccccc3C2=NC1c1ccc([N+](=O)[O-])cc1` (centres undefined) are over 100 µM and 13.8 µM.
As for `CC1(C)CC(=O)C(CC2C(=O)c3ccccc3C2=O)C(=O)C1C(=O)C(=O)Nc1cccc2ccc(O)cc12` (centres undefined), the EC50 was over 51.3 µM and the half-inhibitory concentration (IC50) is over 51.3 µM.
In the case of `Oc1ccc(C2O[C@H](c3ccc(O)cc3)C(c3cc(O)cc(O)c3)C2c2cc(O)cc3c2C(c2cc(O)cc4c2C(c2cc(O)cc(O)c2)[C@H](c2ccc(O)cc2)O4)[C@@H](c2ccc(O)cc2)O3)cc1` (some centres undefined), the EC50 was 36.3 µM and the IC50 came to 214 µM.
Take `C#Cc1c(C)c(/C=C/C(C)=C\C(=O)OC)n(C)c1C`: the EC50 was over 28.2 µM and the IC50 is over 28.2 µM.
On to `c1csc(-c2csc(-c3ccsc3)c2)c1`, for which the EC50 was over 200 µM and the IC50 was over 200 µM.
Turning to `C=C1CN(S(=O)(=O)c2ccc(C)cc2)CCCN(Cc2ccc(C)o2)CCCN(S(=O)(=O)c2ccc(C)cc2)C1`, the EC50 is over 200 µM and the IC50 was over 200 µM.
As to `O=C(/C=C/c1ccccc1)Oc1ccc(C(=O)/C=C/c2ccccc2)cc1`, the EC50 was over 151 µM and the IC50 came out at 6.76 µM.
On the same counts, the results for `CC1(CC2=C(C(=O)NCCO[Si](C)(C)C(C)(C)C)C3(OCCO3)C2=O)OCCO1` are over 200 µM and over 200 µM.
Turning to `O=S1(=O)CSc2ccc3ccccc3c2-c2c1ccc1ccccc21`, the EC50 was over 27.5 µM and the IC50 is over 27.5 µM.
Take `COc1ccc(C(=C(c2ccc(OC)cc2)c2ccc(OC)cc2)c2ccc(OC)cc2)cc1`: the EC50 was over 100 µM and the IC50 is 46.8 µM.
On the same counts, the results for `CCOC(=O)/C=C1/Oc2ccccc2C1(C)O` (centres undefined) are over 42.7 µM and over 42.7 µM.
On to `O=C1c2ccccc2C(=O)c2cscc21`, for which the EC50 is over 77.6 µM and the IC50 was determined as 18.6 µM.
In the case of `O=C1/C(=C/c2cccc([N+](=O)[O-])c2)CCCc2ccccc21`, the EC50 is over 200 µM and the 50% inhibitory concentration (IC50) was determined as 6.31 µM.
